The results in this text go back to ChEMBL document CHEMBL1268832, “Discovery of a potent tubulin polymerization inhibitor: synthesis and evaluation of water-soluble prodrugs of benzophenone analog” (Bioorg Med Chem Lett, 2010).

One data set concerns HL-60. The data set can be described thus: Antiproliferative activity against human HL60 cells after 72 hrs by MTT assay. Type of data set: functional, cell-based. The following applies: HL-60, 72 h.
In data set [1] the test system is HCT-116. The data set can be described thus: Antitumor activity against human HCT116 cells xenografted in mouse assessed as tumor growth inhibition at 5 mg/kg, ip for every 4 days 4 doses. Type of data set: functional. The following applies: route intraperitoneal. Further details: scale not given: the % may be the effect or the level left. For orientation: Xenograft models place foreign cells or tissue in a host animal.

For data set [2], the system named is HCT-116. In words: Antitumor activity against human HCT116 cells xenografted in mouse assessed as mouse survival at 5 mg/kg, ip for every 4 days 4 doses. Type of data set: functional, organism-based. Further details: dose 5 mg/kg.
Data set [3] concerns Mus musculus. In words: Toxicity in human HCT116 cells xenografted in mouse assessed as chage in body weight at 5 mg/kg, ip for every 4 days 4 doses (Rbv = -5.7%). On the set-up: dose 5 mg/kg, route intraperitoneal. It is filed as organism-based, HCT-116. Particulars: in vivo, 96 h.
Data set [4] in a line: Metabolic stability in dog liver microsomes assessed as compound remaining at 5 uM after 1 hr. Type of data set: ADME, Canis lupus familiaris, Microsome. The following applies: read-out: Stability. Background: Liver microsomes are vesicles of endoplasmic reticulum, rich in cytochrome P450 enzymes.
A short description of data set [5]: Half life in Sprague-Dawley rat at 10 mg/kg, iv. Further details: dose 10 mg/kg, route intravenous. Particulars: in vivo. It is filed as ADME, organism-based.
Data set [6] is described as follows: Metabolic stability in human liver microsomes assessed as compound remaining at 5 uM after 1 hr. Particulars: read-out: Stability. Type of data set: ADME, Microsome.
The subject of another data set is MDA-MB-231. In words: Antiproliferative activity against P-gp expressing multidrug-resistant human MDA-MB-231 cells after 72 hrs by MTT assay. Type of data set: functional, cell-based. Particulars: MDA-MB-231, 72 h. A general note: Formazan colour is commonly taken as a measure of viable cells.
The nature of data set [7]: Aqueous solubility of the compound in deionized water. Type of data set: physicochemical.
Data set [8] relates to Mus musculus. The data set can be described thus: Toxicity in human CX-1 cells xenografted in mouse assessed as chage in body weight at 5 mg/kg, ip for every 4 days 4 doses (Rbv = 24.5%). It is filed as organism-based. Further details: dose 5 mg/kg, route intraperitoneal. Particulars: in vivo, 96 h.
The subject of data set [9] is CX-1. In words: Antitumor activity against human CX-1 cells xenografted in mouse assessed as tumor growth inhibition at 5 mg/kg, ip for every 4 days 4 doses. It is filed as functional. On the set-up: scale not given: the % may be the effect or the level left. Particulars: route intraperitoneal.
The test system of data set [10] is Mus musculus. The data set can be described thus: Toxicity in human CX-1 cells xenografted in mouse assessed as chage in body weight at 10 mg/kg, ip for every 4 days 4 doses (Rbv = 24.5%). It is filed as organism-based. Further details: dose 10 mg/kg, route intraperitoneal. The following applies: in vivo, 96 h.
Data set [11] has as its system CX-1. In words: Antitumor activity against human CX-1 cells xenografted in mouse assessed as mouse survival at 5 mg/kg, ip for every 4 days 4 doses. Type of data set: functional, organism-based. Further details: dose 5 mg/kg.
Data set [12] deals with CX-1. In words: Antitumor activity against human CX-1 cells xenografted in mouse assessed as mouse survival at 10 mg/kg, ip for every 4 days 4 doses. On the set-up: dose 10 mg/kg. Type of data set: functional, organism-based.
Data set [13] relates to CX-1. The data set can be described thus: Antitumor activity against human CX-1 cells xenografted in mouse assessed as tumor growth inhibition at 10 mg/kg, ip for every 4 days 4 doses. Type of data set: functional. On the set-up: scale not given: the % may be the effect or the level left. The following applies: route intraperitoneal.
Data set [14] concerns HCT-116. The data set can be described thus: Antitumor activity against human HCT116 cells xenografted in mouse assessed as mouse survival at 10 mg/kg, ip for every 4 days 4 doses. Further details: dose 10 mg/kg. It is filed as functional, organism-based.
Data set [15] relates to Mus musculus. The data set can be described thus: Toxicity in human HCT116 cells xenografted in mouse assessed as chage in body weight at 10 mg/kg, ip for every 4 days 4 doses (Rbv = -5.7%). The following applies: in vivo, 96 h. Further details: dose 10 mg/kg, route intraperitoneal. It is filed as organism-based, HCT-116.
The subject of data set [16] is HCT-116. The data set can be described thus: Antitumor activity against human HCT116 cells xenografted in mouse assessed as tumor growth inhibition at 10 mg/kg, ip for every 4 days 4 doses. Type of data set: functional. Further details: scale not given: the % may be the effect or the level left. The following applies: route intraperitoneal.

Values after ≈ are worked out from the molar mass of the structure shown. Active and inactive are the calls of the source. The calls are words filed in the database; no cut-off is given here.

A word on the IC50: it is the concentration at which inhibition is half-maximal. Compound `COc1cc(C(=O)c2ccc(-c3csc(NC(=O)[C@H](N)Cc4ccc(F)cc4)n3)cc2-n2cncn2)cc(OC)c1OC` gave an IC50 with HL-60 of 740 nM.

Regarding `COc1cc(C(=O)c2ccc(-c3csc(NC(=O)[C@H](N)c4ccccc4)n3)cc2-n2cncn2)cc(OC)c1OC`, 280 nM corresponded to half-maximal inhibition in the data set with HL-60 (IC50).

Consider `COc1cc(C(=O)c2ccc(-c3csc(NC(=O)[C@H](N)Cc4ccc(Cl)cc4)n3)cc2-n2cncn2)cc(OC)c1OC`, for which, in the data set on HL-60, 920 nM corresponded to half-maximal inhibition (IC50).

Regarding `COc1cc(C(=O)c2ccc(-c3csc(NC(=O)[C@H](C)N)n3)cc2-n2cncn2)cc(OC)c1OC`, the Activity in the data set with HCT-116 [1] is given as 62%; with Mus musculus [3] it was -1.7%. The outcome in the data set with HCT-116 [2] was Active. The compound also returned an IC50 in the data set with HL-60 of 13 nM.

Usually half-life stands for how long it takes for the measured level to halve. What is called solubility is the dissolved amount per volume that the medium holds. Turning to `COc1cc(C(=O)c2ccc(-c3csc(N)n3)cc2-n2cncn2)cc(OC)c1OC`, the remaining at 1 h, 5 µM in [4] and in [6] was 60% throughout. In data set [5], this compound yielded a half-life of 1.65 min. In the data set with MDA-MB-231, the IC50 was 9.8 nM. In addition, the solubility in data set [7] is under 100 µg/mL.

For `COc1ccc(/C=C\c2cc(OC)c(OC)c(OC)c2)cc1N`, in the data set on MDA-MB-231, the IC50 was found to be 45 nM.

Regarding `COc1cc(C(=O)c2ccc(-c3csc(NC(=O)C(C)(C)N)n3)cc2-n2cncn2)cc(OC)c1OC`, the Activity was found to be 24.8% with Mus musculus [8], 23% with CX-1 [9], 26.7% in the data set on Mus musculus [10] and 20% in the data set on CX-1 [13]. In the data set with HL-60, this compound gave an IC50 of 5 nM. The result with CX-1 [11] and in the data set on CX-1 [12] was Active.

As to `COc1cc(C(=O)c2ccc(-c3csc(NC(=O)[C@@H](N)Cc4ccccc4)n3)cc2-n2cncn2)cc(OC)c1OC`, the Activity in the data set with Mus musculus [8] is 28.9%; in the data set with CX-1 [9], 21%; in the data set on Mus musculus [10] it was 24.5%; in the data set on CX-1 [13], 43%. Besides, in the data set with HL-60, it took 89 nM to reach half-maximal inhibition (IC50). Further, the outcome with CX-1 [11] and with CX-1 [12] was Active.

Regarding `COc1cc(C(=O)c2ccc(-c3csc(NC(=O)[C@@H](N)C(C)C)n3)cc2-n2cncn2)cc(OC)c1OC`, the result with HCT-116 [14], in the data set on CX-1 [11] and with CX-1 [12] was Active. The remaining at 1 h, 5 µM stood at 10% in data set [4] and 15% in data set [6]. In data set [5], this compound displayed a half-life of 0.41 min. Besides, the Activity in the data set on Mus musculus [15] was 5.1%; with Mus musculus [8] it was 25.7%; in the data set with CX-1 [9] it was 28%; in the data set with HCT-116 [16] it was 88%; in the data set on Mus musculus [10] it was 14.7%; in the data set on CX-1 [13], 64%. The compound also showed a solubility in data set [7] of 930 µg/mL (≈ 1730 µM). In the data set with HL-60, this compound displayed a half-inhibitory concentration (IC50) of 110 nM.

Turning to `COc1cc(C(=O)c2ccc(-c3csc(NC(=O)[C@@H](N)CC(C)C)n3)cc2-n2cncn2)cc(OC)c1OC`, the IC50 with HL-60 is 76 nM.

`COc1cc(C(=O)c2ccc(-c3csc(NC(=O)[C@@H](N)CO)n3)cc2-n2cncn2)cc(OC)c1OC` displayed an IC50 in the data set on HL-60 of 81 nM.

Take `COc1cc(C(=O)c2ccc(-c3csc(NC(=O)[C@@H](N)CC4CCCCC4)n3)cc2-n2cncn2)cc(OC)c1OC`: the IC50 in the data set with HL-60 was 86 nM.

Consider `COc1cc(C(=O)c2ccc(-c3csc(NC(=O)CN)n3)cc2-n2cncn2)cc(OC)c1OC`, for which the Activity with Mus musculus [8] is listed as 22.2%; in the data set with CX-1 [9], 40%; in the data set with Mus musculus [10], 21%; in the data set with CX-1 [13], 44%. In addition, inhibition in the data set on HL-60 was half-maximal at 27 nM (IC50). In addition, the result with CX-1 [11] was Active.

For `COc1cc(C(=O)c2ccc(-c3csc(NC(=O)[C@@H]4CCCN4)n3)cc2-n2cncn2)cc(OC)c1OC`, in the data set with HL-60, the IC50 came out at 98 nM.

Consider `COc1cc(C(=O)c2ccc(-c3csc(NC(=O)[C@H](N)Cc4ccc(C(F)(F)F)cc4)n3)cc2-n2cncn2)cc(OC)c1OC`, for which the half-maximal inhibitory concentration (IC50) in the data set on HL-60 is over 2000 nM.
